Experimental data from US7902254B1, “Method for treating conditions mediated by PPAR using macelignan” (Newtree Co., Ltd., priority 2005, dated 2011).

Legend:
[1] = system: target genes of PPARγ (CD36, LPL, ACS, GyK); assay: Expression of target genes of PPARγ in liver tissue of obesity/diabetes mouse model; type: in vivo; settings: 5, 10 and 25 mg/kg oral, 14 days, db/db mice, p<0.05 vs control
Procedure: Liver tissue was removed from the test groups and the controls treated by oral administration in Examples 5˜8. The liver tissue was homogenized in liquid nitrogen and the total RNA was isolated from the crushed tissues by using TRIZOL (Invitrogen, USA). The total RNA isolated as described above was determined and cDNA was synthesized by using reverse transcriptase at 42° C. for 20 minutes. The cDNA was subjected to RT-PCR by repeating the cycle of 95° C./1 minute, 56° C./30 seconds and 72° C./2 minutes thirty times with the following primers and Taq polymerase: primers for CD36 amplification (SEQ ID NO: 5 and SEQ ID NO: 6), primers for LPL amplification (SEQ ID NO: 13 and SEQ ID NO: 14), primers for ACS amplification (SEQ ID NO: 17 (AGCAGAGCTTCGCACGGC) and SEQ ID NO: 18 ([…]) and primers for GyK amplification (SEQ ID NO: 19 ([…]) and SEQ ID NO: 20 ([…])). Expression of the genes was determined by real-time PCR.

[2] = system: obesity/diabetes mice (db/db mice); assay: Anti-diabetes effect in obesity/diabetes mouse model; type: in vivo; settings: for OGTT blood sugar: 12th day; for blood sugar level: 14 days; for blood sugar level / Adiponectin concentration in blood / Insulin concentration in blood: db/db mice; for Adiponectin concentration in blood / Insulin concentration in blood: 14th day
Text: A mouse (db/db mouse; The Jackson Laboratory, USA) used in the present invention as an obesity/diabetes model is deficient in leptin genes and cannot control its appetite, and thus takes an excessive amount of food continuously. […] Thus, it can be a typical model of obesity and metabolic diseases. Additionally, it has a higher blood sugar level and can be a typical model of non-insulin-dependent diabetes mellitus. To investigate the effect of preventing and treating diabetes of macelignan, seven mice of 10 week-aged obesity/diabetes mice (db/db mice) were used per test group. To the test groups, macelignan suspended in 0.25% carboxymethyl cellulose was orally administered with the dose of 5 mg/kg (body weight), 10 mg/kg (body weight) and 25 mg/kg (body weight), once per day at a predetermined time, for 14 days. As a control, 0.25% carboxymethyl cellulose was orally administered alone to normal mice in the same dose as administered to the test group. As another control, 0.25% carboxymethyl cellulose was orally administered alone to obesity/diabetes mice in the same dose as administered to the test group. As still another control, 10 mg/kg (body weight) of troglitazone was orally administered. Blood sugar levels of the obesity/diabetes mice were determined from six days before the administration, once per three days. On the 12th day after the oral administration, the test group and the controls were subjected to the Oral Glucose Tolerance Test (OGTT). For this test, obesity/diabetes mice in the test group and the controls were fasted for at least 18 hours, glucose was orally administered to the mice in a dose of 3 g/kg (body weight), and then variations in the blood sugar were measured at 0 minutes, 30 minutes, 60 minutes and 120 minutes after the glucose administration. Additionally, on the 14th day of the oral administration, the final blood sugar level, insulin content in blood (mouse insulin ELISA Kit, Linco Research, o. EZRMI-BK, USA) and adiponectin content in blood (Adiponectin Quantikine ELISA Kit, R&D systems, No. MRP300, USA) were analyzed.

human PPARγ = biological target: T1, human PPARγ (Homo sapiens, UniProt P37231); assay: PPARγ activation, luciferase reporter in transfected COS-7 cells; type: cell-based; settings: 24 hours
T1 construct: expressed in transfected cells; host or cells: COS-7 monkey kidney cells (ATCC CRL-1651)
T1 sequence (P37231 176-477 isoform P37231-2): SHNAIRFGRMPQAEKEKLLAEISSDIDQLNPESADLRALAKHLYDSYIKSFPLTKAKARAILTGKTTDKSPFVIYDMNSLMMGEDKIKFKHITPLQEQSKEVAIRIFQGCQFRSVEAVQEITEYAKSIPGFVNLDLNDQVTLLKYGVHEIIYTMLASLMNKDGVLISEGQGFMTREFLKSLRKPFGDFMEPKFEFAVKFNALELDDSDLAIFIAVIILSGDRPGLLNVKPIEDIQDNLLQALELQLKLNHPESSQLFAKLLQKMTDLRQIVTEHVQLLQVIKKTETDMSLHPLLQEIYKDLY
Procedure: Then, the polynucleotide was cloned between the restriction enzyme sites of BamHI and KpnI of pFA vector (Stratagene, USA). […] RT-PCR was performed by synthesizing cDNA using reverse transcriptase at 42° C. for 60 minutes, and 30 cycles of 1 minute at 95° C., 30 seconds at 54° C. and 2 minutes at 72° C. using Taq polymerase. […] Then, the polynucleotide was cloned between the restriction enzyme sites of XbaI and KpnI of pFA vector (Stratagene, USA).

Oral toxicity test = settings: rat, in vivo; oral administration, rats; read-out: lethal dose 50% (LD50)

In the case of COc1cc(C[C@H](C)[C@H](C)Cc2ccc3c(c2)OCO3)ccc1O (single isomer, unassigned) [macelignan], the “mRNA expression of CD36, LPL, ACS and GyK in liver tissue” value [1] is reported as “significantly increased”, the OGTT blood sugar ([2]; 0 min. after glucose 3 g/kg, 5 mg/kg oral) is reported as 379.14 ± 26.23 mg/dL and the OGTT blood sugar ([2]; 0 min. after glucose 3 g/kg, 10 mg/kg oral) is reported as 313.86 ± 51.40 mg/dL. The OGTT blood sugar ([2]; 0 min. after glucose 3 g/kg, 25 mg/kg oral) was 319.14 ± 35.25 mg/dL, the blood sugar level ([2]; 5 mg/kg oral once per day) was 552.84 ± 47.95 mg/dL and the “Adiponectin concentration in blood” value ([2]; 5 mg/kg oral) was 5111.14 ± 925.88 ng/mL. The “Insulin concentration in blood” value ([2]; 5 mg/kg oral) was 26.33 ± 10.78 ng/mL, the blood sugar level ([2]; 10 mg/kg oral once per day) was 501.03 ± 43.67 mg/dL and the “Adiponectin concentration in blood” value ([2]; 10 mg/kg oral) was 6882.86 ± 250.05 ng/mL. The “Insulin concentration in blood” value ([2]; 10 mg/kg oral) was 16.66 ± 7.03 ng/mL, the blood sugar level ([2]; 25 mg/kg oral once per day) was 412.74 ± 31.15 mg/dL and the “Adiponectin concentration in blood” value ([2]; 25 mg/kg oral) was 7864.00 ± 808.21 ng/mL. For the same molecule, the “Insulin concentration in blood” value ([2]; 25 mg/kg oral) was 8.51 ± 3.67 ng/mL, the OGTT blood sugar ([2]; 30 mins. after glucose 3 g/kg, 5 mg/kg oral) was 636.85 ± 63.29 mg/dL and the OGTT blood sugar ([2]; 30 mins. after glucose 3 g/kg, 10 mg/kg oral) was 670.14 ± 94.20 mg/dL. For the same molecule, the OGTT blood sugar ([2]; 30 mins. after glucose 3 g/kg, 25 mg/kg oral) was 580.00 ± 101.37 mg/dL, the OGTT blood sugar ([2]; 60 mins. after glucose 3 g/kg, 5 mg/kg oral) was 613.38 ± 24.36 mg/dL and the OGTT blood sugar ([2]; 60 mins. after glucose 3 g/kg, 10 mg/kg oral) was 593.11 ± 27.15 mg/dL. The OGTT blood sugar ([2]; 60 mins. after glucose 3 g/kg, 25 mg/kg oral) was 509.70 ± 27.71 mg/dL, the OGTT blood sugar ([2]; 120 mins. after glucose 3 g/kg, 5 mg/kg oral) was 564.21 ± 29.86 mg/dL and the OGTT blood sugar ([2]; 120 mins. after glucose 3 g/kg, 10 mg/kg oral) was 529.46 ± 17.55 mg/dL. For the same molecule, the OGTT blood sugar ([2]; 120 mins. after glucose 3 g/kg, 25 mg/kg oral) was 431.21 ± 59.18 mg/dL, the “luciferase activity higher than the control (PPARγ)” value (human PPARγ; 25 μM, control 0.01% DMSO) was “about 10.4 times” and the PPARγ activity (human PPARγ; 1, 5, 10 and 25 μM, p<0.01 vs control) was “increased PPARγ activity in a concentration-dependent manner”. The LD50 (Oral toxicity test) was ≥ 2000 mg/kg.
